pEC50, pKd: −log10 of the molar value. Where two headings read alike, the source gives them in different places. Residues, ends and D or L forms follow the SMILES beside them.

The target in data set [1] is T1, Protein S/APC cofactor activity (Homo sapiens, UniProt P07225).
T1 construct: host or cells: plasma
T1 sequence (P07225 41-676 limits assumed): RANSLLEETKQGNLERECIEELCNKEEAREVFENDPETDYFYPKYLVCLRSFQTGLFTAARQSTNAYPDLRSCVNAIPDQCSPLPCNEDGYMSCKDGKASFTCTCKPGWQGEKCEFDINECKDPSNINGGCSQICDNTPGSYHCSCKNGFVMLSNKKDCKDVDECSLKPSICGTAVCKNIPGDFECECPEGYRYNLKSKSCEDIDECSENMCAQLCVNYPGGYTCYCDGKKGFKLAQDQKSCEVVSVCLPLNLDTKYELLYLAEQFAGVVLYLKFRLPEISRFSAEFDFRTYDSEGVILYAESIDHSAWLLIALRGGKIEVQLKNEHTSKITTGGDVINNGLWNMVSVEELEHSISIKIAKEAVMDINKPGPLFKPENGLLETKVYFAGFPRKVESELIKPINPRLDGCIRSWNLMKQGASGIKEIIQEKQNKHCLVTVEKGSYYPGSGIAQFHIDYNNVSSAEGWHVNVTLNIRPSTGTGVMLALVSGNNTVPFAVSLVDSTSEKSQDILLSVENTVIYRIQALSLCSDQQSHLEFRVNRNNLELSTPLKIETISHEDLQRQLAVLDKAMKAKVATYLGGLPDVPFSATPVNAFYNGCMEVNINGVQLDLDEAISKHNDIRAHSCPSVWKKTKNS
The experiment in a line: CAT assay in pooled normal plasma supplemented with 3 nM APC. The conditions noted are these: 6 pM TF, 15 μM phospholipids. The data set is classed as biochemical. Here is the method: Peptides also were tested for improvement of Protein S/APC-dependent thrombin generation in hemophilic plasma using a CAT assay. Protein S enhances the anticoagulation of APC in plasma. The CAT assay quantifies the effect of Protein S on APC-mediated thrombin generation initiated via the extrinsic coagulation pathway (Nicolaes, Blood Coagul. Fibrinolysis, 8:28 (1997)). APC (35 nM) and Protein S (25 nM) was added to Protein 5-depleted plasma, and plasma samples were incubated with high titer heat inactivated anti-human FVIII plasma raised in goat (4490 BU/ml; Baxter BioScience, Vienna, Austria; 50 BU/ml final plasma concentration). Thrombin formation in plasma was followed by calibrated automated thrombography (CAT) in a Fluoroskan Ascent® reader (Thermo Labsystems, Helsinki, Finland) and quantified via the thrombin peak-height. Thrombin generation was determined at high tissue factor (TF) concentration in the absence and in the presence of APC at a concentration that reduces the peak height to 20%. The inhibitory effect of peptides described herein on the APC cofactor activity of Protein S (PS) in plasma was measured in FVIII-inhibited pooled normal plasma supplemented with APC. Complete (100%) Protein S/APC inhibition is the height of the thrombin peak without addition of APC. Lack of (0%) PS/APC inhibition correlates to the thrombin peak-height value with a certain amount of APC. Peptides were ranked by their normalized values in comparison to the mean of wild-type controls including SD at two defined peptide concentrations (EC50 and EC90). […] For the assays, pooled normal plasma was supplemented with 3 nM APC and triggered with 6 pM TF, and 15 μM phospholipids (DOPC/POPS 80/20). Stock APC was diluted with TF-PL-MIX to 24 nM (plasma concentration: 3 nM).

The target of data set [2] is T2, human full-length Protein S (Homo sapiens, UniProt P07225).
T2 construct: using human full-length Protein S and human GAS6
T2 sequence (P07225 41-676 limits assumed): T1 sequence (P07225 41-676 limits assumed)
Briefly: Biacore (surface plasmon resonance) on immobilized Protein S. The data set is classed as binding. The conditions noted are these: Biacore; for koff / kon: Table 3; for pKd: affinity-matured and modified peptides, read-out: KD. The protocol: (§1) Protein S affinity also was determined via Biacore (Biacore 3000 or Biacore T200) using human full-length Protein S and human GAS6. Briefly, 1000 RU of Protein S or GAS6 were immobilized on a CMS chip. In order to probe the kinetics of Protein S binding peptides to Protein S, the peptides were injected at various concentrations in a HBS-buffer containing 3 mM CaCl2 and 1% DMSO to the flow cell and allowed to interact with the immobilized proteins on the sensor chip. The chip could be regenerated with 4 M MgCl2 in HBS-buffer. Sensorgrams were fitted to a Langmuir binding model for the determination of kon and koff and the calculation of KD. Peptides were tested on their specificity to Protein S with peptide binding studies on the anti-target GAS6.
(SPR reads the build-up and loss of mass on a sensor chip optically.)

Data set [3] in a line: plasma stability in mouse plasma. The data set is classed as in vitro ADME. The note with it: 37° C. Here is the method:
(§2) Affinity and activity of all 18 peptides was improved compared to parent JBS2572. […] Activity and stability were improved up to 1.5-fold. Plasma stability was determined in pooled normal human plasma and mouse plasma at 37° C.; exemplary results also are provided in Table 3.

A short description of data set [4]: plasma stability in pooled normal human plasma. The conditions noted are these: pooled normal human plasma, 37° C., 6 hours. The data set is classed as in vitro ADME. The protocol:
as §2

Data set [5] concerns the target T3, human GAS6 (Homo sapiens, UniProt Q14393).
T3 sequence (Q14393 31-678): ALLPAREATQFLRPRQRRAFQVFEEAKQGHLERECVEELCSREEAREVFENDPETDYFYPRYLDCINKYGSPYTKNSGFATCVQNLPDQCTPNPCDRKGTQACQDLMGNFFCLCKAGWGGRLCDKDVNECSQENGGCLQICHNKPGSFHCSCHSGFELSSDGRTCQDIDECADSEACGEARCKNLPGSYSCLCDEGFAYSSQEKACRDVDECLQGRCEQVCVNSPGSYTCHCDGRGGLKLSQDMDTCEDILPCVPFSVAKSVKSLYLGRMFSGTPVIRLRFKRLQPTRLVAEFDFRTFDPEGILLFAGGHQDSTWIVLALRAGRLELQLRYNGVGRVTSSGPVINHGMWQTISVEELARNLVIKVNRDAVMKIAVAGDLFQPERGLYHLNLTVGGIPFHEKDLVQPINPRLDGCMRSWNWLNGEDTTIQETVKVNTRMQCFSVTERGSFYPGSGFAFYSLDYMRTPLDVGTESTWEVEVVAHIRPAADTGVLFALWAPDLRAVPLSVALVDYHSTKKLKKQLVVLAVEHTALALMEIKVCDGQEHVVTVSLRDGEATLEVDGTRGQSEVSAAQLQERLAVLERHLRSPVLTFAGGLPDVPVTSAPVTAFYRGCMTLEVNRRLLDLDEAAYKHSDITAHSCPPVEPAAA
The experiment in a line: Biacore binding to anti-target GAS6. The conditions noted are these: 1 μM peptide; sensorgrams reviewed visually. The protocol: as §1
Interactions with the anti-target GAS6 were measured via Biacore (surface plasmon resonance) (see Example 2). The maximum signal from the interaction of the peptides with human GAS6 was much lower than the signals obtained with Protein S as interaction partner. Kinetic analysis of the low GAS6 binding signals was error prone, and sensorgrams were reviewed visually to estimate anti-target binding. […] The affinity of JBS2572 for the anti-target was at least 10 times less (indeed, at least 150 times less) than the affinity of the peptides for human Protein S. The data provided by this example confirm that peptides described herein specifically bind Protein S.

Compound `CC(=O)N[C@H](C(=O)NCC(=O)N[C@@H](CC(C)C)C(=O)N[C@H](C(=O)N[C@@H](CO)C(=O)N[C@@H](C)C(=O)NCC(=O)N[C@@H](Cc1c[nH]c2ccccc12)C(=O)N[C@@H](Cc1ccc(O)cc1)C(=O)N[C@@H](CC(=O)O)C(=O)N[C@@H](Cc1ccc(O)cc1)C(=O)N[C@@H](CC(N)=O)C(=O)N[C@@H](Cc1ccccc1)C(=O)N[C@@H](CC(=O)O)C(=O)N[C@H](C(=O)N[C@@H](Cc1ccc(O)cc1)C(=O)N[C@H](C(=O)N[C@@H](CCC(=O)O)C(=O)N[C@@H](Cc1ccccc1)C(=O)N[C@H](C(N)=O)[C@@H](C)O)[C@@H](C)O)[C@@H](C)O)C(C)C)[C@@H](C)O` [JBS3188] (Ac-TGLVSAGWYDYNFDTYTEFT-NH2) showed a pEC50 in data set [1] of 6.81.
With `CC[C@H](C)[C@H](NC(=O)[C@H](CC(=O)O)NC(=O)[C@H](CCCCN)NC(=O)[C@H](CC(N)=O)NC(=O)[C@H](Cc1ccc(O)cc1)NC(=O)[C@H](CC(=O)O)NC(=O)[C@H](Cc1ccc(O)cc1)NC(=O)[C@H](Cc1c[nH]c2ccccc12)NC(=O)CNC(=O)[C@H](C)NC(=O)[C@@H](NC(=O)[C@@H](NC(=O)[C@@H](NC(=O)[C@H](Cc1ccc(O)cc1)NC(=O)[C@H](CCC(=O)O)NC(C)=O)[C@@H](C)CC)C(C)C)[C@@H](C)O)C(=O)N[C@@H](Cc1ccc(O)cc1)C(=O)N[C@@H](Cc1ccc(O)cc1)C(=O)N[C@@H](CCC(=O)O)C(=O)N[C@@H](Cc1ccccc1)C(=O)N[C@@H](CCCCN)C(N)=O` [JBS3263] (Ac-EYIVTAGWYDYNKDIYYEFK-NH2), the koff in data set [2] (read-out: koff) came out at 0.000264 s⁻¹. The kon in data set [2] (read-out: kon) came to 629000 M⁻¹ s⁻¹. Besides, the pKd in data set [2] was 9.40. For the same compound, the “Stability in mouse plasma; 4 hours [%]” value in data set [3] is 56 ± 6%. For the same compound, the “Stability in human plasma; 6 hours [%]” value in data set [4] was determined as 74 ± 12%.
Regarding `CC[C@H](C)[C@H](NC(=O)[C@H](C)NC(C)=O)C(=O)N[C@@H](Cc1ccc(O)cc1)C(=O)N[C@H](C(=O)N[C@H](C(=O)N[C@@H](C)C(=O)NCC(=O)N[C@@H](Cc1c[nH]c2ccccc12)C(=O)N[C@@H](Cc1ccc(O)cc1)C(=O)N[C@@H](CC(=O)O)C(=O)N[C@@H](Cc1ccc(O)cc1)C(=O)N[C@@H](CC(N)=O)C(=O)N[C@@H](CC(N)=O)C(=O)N[C@@H](CC(=O)O)C(=O)N[C@H](C(=O)N[C@@H](Cc1ccc(O)cc1)C(=O)N[C@@H](Cc1ccc(O)cc1)C(=O)N[C@@H](CCC(=O)O)C(=O)N[C@@H](Cc1ccccc1)C(=O)N[C@H](C(N)=O)[C@@H](C)O)[C@@H](C)O)[C@@H](C)O)C(C)C` [JBS3283] (Ac-AIYVTAGWYDYNNDTYYEFT-NH2), the koff in data set [2] (read-out: koff) amounted to 0.000322 s⁻¹. For the same compound, in data set [2] (read-out: kon), the kon was determined as 735000 M⁻¹ s⁻¹. In addition, the pKd in data set [2] is 9.40. Besides, the “Stability in mouse plasma; 4 hours [%]” value in data set [3] came to 94 ± 6%. In addition, the “Stability in human plasma; 6 hours [%]” value in data set [4] is listed as 90 ± 9%.
Taken in the same sequence, the figures for `CC(=O)N[C@@H](Cc1c[nH]cn1)C(=O)N[C@@H](Cc1c[nH]c2ccccc12)C(=O)N[C@@H](Cc1ccc(O)cc1)C(=O)N[C@H](C(=O)N[C@@H](CO)C(=O)N[C@@H](C)C(=O)NCC(=O)N[C@@H](Cc1c[nH]c2ccccc12)C(=O)N[C@@H](Cc1ccc(O)cc1)C(=O)N[C@@H](CC(=O)O)C(=O)N[C@@H](Cc1ccc(O)cc1)C(=O)N[C@@H](CC(N)=O)C(=O)N[C@@H](CCC(=O)O)C(=O)N[C@@H](CC(=O)O)C(=O)N[C@@H](CCCCN)C(=O)N[C@@H](Cc1ccc(O)cc1)C(=O)N[C@@H](Cc1ccc(O)cc1)C(=O)N[C@@H](CCC(=O)O)C(=O)N[C@@H](Cc1ccccc1)C(=O)N[C@@H](CCC(=O)O)C(N)=O)C(C)C` [JBS3306] (Ac-HWYVSAGWYDYNEDKYYEFE-NH2) were 0.000402 s⁻¹, 1e+06 M⁻¹ s⁻¹, 9.40, 80 ± 14% and 84 ± 12%.
Turning to “JBS3318: JBS3319 conjugated to 40 kD PEG moiety (Ac-EYYVSAGWYDYNTDTYYEFEC-NH2; not fully specified (residue 21))”, in data set [2], the “koff” value is 0.000213 s⁻¹ and the “kon” value is 152000 M⁻¹ s⁻¹. For the same compound, the “Stability in mouse plasma; 4 hours [%]” value in data set [3] amounted to 102 ± 20%. Moreover, the “binding to GAS6” value in data set [5] is “not to interact”. For the same compound, the “Stability in human plasma; 6 hours [%]” value in data set [4] worked out at 114 ± 8%.
With “JBS3321: tetramer of JBS3319 monomers together with a four arm 10 kD PEG moiety (Ac-EYYVSAGWYDYNTDTYYEFEC-NH2; not fully specified (residue 21); also: tetramer: four chains joined through C-terminal Cys maleimide to a four-arm 10 kD PEG core)”, in data set [2], the “koff” value was 3.88e-05 s⁻¹ and the “kon” value was 1.58e+06 M⁻¹ s⁻¹. Also, in data set [3], the “Stability in mouse plasma; 4 hours [%]” value was 94 ± 12%. Also, the “Stability in human plasma; 6 hours [%]” value in data set [4] stood at 99 ± 6%.
Regarding “JBS3322: JBS3206 monomer comprising a 40 kD PEG moiety (Ac-EYIVTAGWYDYNKDIYYEFKC-NH2; not fully specified (residue 21))”, in data set [2], the off-rate constant (koff) came to 0.000278 s⁻¹ and the “kon” value was 78000 M⁻¹ s⁻¹. The “Stability in mouse plasma; 4 hours [%]” value in data set [3] is recorded as 91 ± 26%. Besides, in data set [5], the “binding to GAS6” value is “not to interact”. The “Stability in human plasma; 6 hours [%]” value in data set [4] was determined as 131 ± 14%.

A word on the pEC50: it is the negative decadic logarithm of the EC50, by convention in mol/L. A lower pEC50 goes with a high EC50. For orientation: koff means the rate constant with which the complex falls apart. The kon is the second-order rate constant of association. The term pKd denotes −log10 of the Kd, conventionally taken in molar units.

These data come from US10124033B2, “Peptides and methods of use” (BAXALTA INCORPORATED, priority 2014, dated 2018).
